Measurements reported in ChEMBL document CHEMBL2028040, “Malaria Box”.

Assays:
Plasmodium falciparum [1] = assay: MMV: Inhibition of Plasmodium falciparum 3D7 at 5uM compound concentration.; assay type: functional
Leishmania infantum = assay: MMV: Inhibition of Leishmania infantum (MHOM/MA/BE/67) in vitro.; assay type: functional, organism-based
Plasmodium falciparum [2] = assay: MMV: Inhibition of Plasmodium falciparum K1 (EC50).; assay type: functional, organism-based
Plasmodium falciparum [3] = assay: MMV: Inhibition of Plasmodium falciparum 3D7 (EC50).; assay type: functional, organism-based
[4] = system: Trypanosoma brucei rhodesiense; assay: MMV: Inhibition of Trypanosoma brucei rhodesiense (STIB 900) (HAT in vitro).; assay type: functional, organism-based
[5] = MMV: Cytotoxicity against human fibroblasts (MRC-5) cells.; conditions: MRC-5 cells (human fibroblasts)
Trypanosoma cruzi = assay: MMV: Inhibition of Trypanosoma cruzi (Tulahuen C4 LacZ) (Chagas in vitro).; assay type: functional, organism-based
[6] = system: Trypanosoma brucei brucei; assay: MMV: Inhibition of Trypanosoma brucei brucei (Squib 427) (HAT in vitro).; assay type: functional, organism-based

Row | IC50 (Leishmania infantum) [µM] | EC50 (Plasmodium falciparum [2]) [µM] | EC50 (Plasmodium falciparum [3]) [µM] | IC50 [4] [µM] | IC50 (Trypanosoma cruzi) [µM] | IC50 [6] [µM] | SMILES | inhibition at 5 µM (Plasmodium falciparum [1]) [%] | IC50 [5] [µM]
1 | > 32 | 0.843 | 0.871 | > 32 | > 32 | > 32 | CC(=O)Nc1nnc(SCc2c(C)cc(C(C)(C)C)cc2C)s1 | 96 | > 32
2 | > 32 | 0.0508 | 0.0202 | > 32 | > 32 | > 32 | COc1ccc(NC(=O)C2c3ccccc3C(=O)N(CC(C)C)C2c2cccs2)cc1Cl (centres undefined) | 100 | > 32
3 | 1 | 1.62 | 0.8 | < 0.125 | 1.01 | < 0.125 | Clc1cc(Br)ccc1-c1ccc(CNCC2CCNCC2)o1 | 96 | 4.03
4 | 1.59 | 0.298 | 0.466 | 0.784 | 0.902 | 0.877 | OC(CNC1CCCCC1)Cn1c2ccc(I)cc2c2cc(I)ccc21 (centres undefined) | 97 | 4.03
5 | > 32 | 0.994 | 0.378 | > 32 | 3.06 | > 32 | CCc1c(C)c(=N)c2ccccc2n1C | 76 | 6.89
6 | > 32 | 1.04 | 0.906 | > 32 | > 32 | > 32 | Cc1ccc(C(=O)c2oc3ccc4c(C)cc(=O)oc4c3c2C)cc1 | 96 | 21.2
7 | 16.2 | 0.6 | 0.118 | > 32 | 1.53 | > 32 | CCOC(=O)c1ccc2nc(-c3ccccc3)cc(O)c2c1 | 96 | 7.58
8 | > 32 | 0.388 | 0.17 | 21 | 24.4 | > 32 | COc1ccc(-n2ccnc2SCC(=O)Nc2cc(C)ccc2C)c(OC)c1 | 95 | > 32
9 | 16.2 | 0.49 | 0.489 | 4.15 | 14.1 | 14.2 | CCOC(=O)C1=C(C)N=c2sc(=Cc3cc(Cl)ccc3O)c(=O)n2C1c1ccc(OC)cc1 (centres undefined) | 97 | 16.6
10 | 1.19 | 0.668 | 0.304 | 0.85 | 1.89 | 1.04 | c1ccc2c(NCCc3c[nH]c4ccccc34)c3ccccc3nc2c1 | 97 | 3.97
11 | > 32 | 0.224 | 0.179 | > 32 | > 32 | > 32 | COc1ccc(C(C)=O)cc1N1C(=O)C2C(C1=O)C1(c3ccccc3)C(=O)C2(c2ccccc2)C(c2ccc(C)cc2)=C1c1ccc(C)cc1 (centres undefined) | 96 | > 32
12 | > 32 | 1.07 | 0.912 | 16.2 | > 32 | 16.6 | COc1ccc(OC)c(C2C3=C(CC(C)(C)CC3=O)N(c3ccc(Cl)c(Cl)c3)C3=C2C(=O)CC(C)(C)C3)c1 | 90 | > 32
13 | > 32 | 1.28 | 0.448 | 16.1 | 16.8 | 16 | COc1ccc(-c2nc(NC(=O)CS(=O)(=O)c3ccc(F)cc3)sc2C)cc1 | 97 | > 32
14 | 16.2 | 2.13 | 2.06 | 3.33 | 3.7 | 3.94 | O=C(Nc1ccc(F)c(Cl)c1)Nc1ccc(Cl)c(Cl)c1 | 95 | 4.51
15 | > 32 | 0.436 | 0.205 | > 32 | > 32 | > 32 | CCOC(=O)c1cn(CC)c2cc(N(C)CCc3ccc(OC)c(OC)c3)c(F)cc2c1=O | 99 | > 32
16 | 25.4 | 0.288 | 0.237 | 1.69 | 12.1 | 4.06 | CCCCCC(=O)N1c2ccccc2N=C2CC(c3ccc(OC)c(OC)c3)CC(O)=C2C1c1ccc(C(F)(F)F)cc1 (centres undefined) | 100 | > 32
17 | 4 | 1.4 | 0.893 | 1.01 | 4.17 | 2.77 | N=c1n(CCN2CCCCC2)c2ccccc2n1CC(O)c1cccc(Br)c1 (centres undefined) | 98 | 27.6
18 | 16.2 | 0.172 | 0.135 | 15.3 | 15.4 | 16.1 | CSC1=NC(=Nc2c(C)cccc2C)C2(CCC(C(C)(C)C)CC2)N1c1ccc(Cl)cc1 (centres undefined) | 96 | > 32
